Results on 17 substances are retold here after US20210069249A1, “METHODS AND COMPOSITIONS OF CYTOTOXIC T CELL DEPLETION” (CRISPR THERAPEUTICS AG, priority 2018, published 2021).

The test system of series [1] is exon 6 of the IL2RG gene. Kind of series: On-target cleavage efficiency (INDEL, TIDES protocol) of IL2RG gRNAs. It is filed as cell-based. The note with it: primary human CD3+ T cells; one day post-editing; 3 independent experiments.
Series [2] has as its system off-target sites in primary human CD3+ cells. Kind of series: GUIDE-seq off-target analysis of IL2RG gRNAs.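 On all read-outs here: Cas9 RNP plus double-stranded oligonucleotide nucleofected into CD3+ T cells, capture sites found by sequencing, sites also seen in RNP-free control cells discarded.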 It is filed as cell-based. The note with it: for On-Target Read Count / on-target/off-target profile (GUIDE-seq) / GUIDE-seq Off-Targets / Present in Multiple Replicates: CD3+ T cells; for on-target/off-target profile (GUIDE-seq): multiple independent cell sample replicates; for GUIDE-seq Off-Targets: number of sites; for Present in Multiple Replicates: off-target sites found in at least 2 cell sample replicates.

The test system of series [3] is TCR and CD3 expression in CD8+ and CD3+ T cells. Briefly: TCR and CD3 expression by flow cytometry after TRAC editing. Format: cell-based, human. The note with it: day seven post-editing.
Series [4] deals with primary human CD8+ or CD3+ T cells. Kind of series: Cell viability and total cell counts after Cas9/gRNA RNP editing. The note with it: day two post-editing.
The subject of series [5] is TRAC gene. Kind of series: On-target cleavage efficiency (INDEL, TIDES protocol) of TRAC gRNAs. The note with it: day two post-editing, 2 independent experiments.

On to “GC1: sgRNA targeting IL2RG exon 6, spacer 5′-ACCAGTGCCTGGCATGTAGT-3′ (spacer only, sgRNA scaffold lacks entry, further chemistry not given here)”, for which, in series [1], the “Average INDEL Frequency (%)” value amounted to 46.43%.

Turning to “GC2: sgRNA targeting IL2RG exon 6, spacer 5′-CCAGTGCCTGGCATGTAGTA-3′ (spacer only, sgRNA scaffold lacks entry, further chemistry not given here)”, the “Average INDEL Frequency (%)” value in series [1] was 74.67%.

On to “GC3: sgRNA targeting IL2RG exon 6, spacer 5′-CAGTGCCTGGCATGTAGTAG-3′ (spacer only, sgRNA scaffold lacks entry, further chemistry not given here)”, for which, in series [1], the “Average INDEL Frequency (%)” value is 77.53%.

Consider “GC4: sgRNA targeting IL2RG exon 6, spacer 5′-GTAGGGGCACAACAAATATA-3′ (spacer only, sgRNA scaffold lacks entry, further chemistry not given here)”, for which the “Average INDEL Frequency (%)” value in series [1] came out at 41.07%.

On to “GC5: sgRNA targeting IL2RG exon 6, spacer 5′-GAATCCTTTCCTGTTTGCAT-3′ (spacer only, sgRNA scaffold lacks entry, further chemistry not given here)”, for which the “Average INDEL Frequency (%)” value in series [1] was 13.03%.

Consider “GC6: sgRNA targeting IL2RG exon 6, spacer 5′-CCTGTTTGCATTGGAAGCCG-3′ (spacer only, sgRNA scaffold lacks entry, further chemistry not given here)”, for which, in series [1], the “Average INDEL Frequency (%)” value stood at 14.80%.

Regarding “GC7: sgRNA targeting IL2RG exon 6, spacer 5′-GAAGCCGTGGTTATCTCTGT-3′ (spacer only, sgRNA scaffold lacks entry, further chemistry not given here)”, the “Average INDEL Frequency (%)” value in series [1] came out at 31.07%.

“GC8: sgRNA targeting IL2RG exon 6, spacer 5′-GGTTATCTCTGTTGGCTCCA-3′ (spacer only, sgRNA scaffold lacks entry, further chemistry not given here)”: the “Average INDEL Frequency (%)” value in series [1] is on record as 66.40%. For the same substance, in series [2], the “On-Target Read Count” value is listed as 4348, the “on-target/off-target profile (GUIDE-seq)” value is “generally favorable”, the “GUIDE-seq Off-Targets” value stood at 930 and the “Present in Multiple Replicates” value was 3. For the same substance, the Off-Target/On-Target in series [2] (site chr1 125180094, Intergenic) was 1.54%. Also, in series [2] (site chr16 46390807, Intergenic), the Off-Target/On-Target is given as 0.14%. In series [2] (site chr16 46399022, Intergenic), this substance showed an Off-Target/On-Target of 0.46%.

Turning to “GC9: sgRNA targeting IL2RG exon 6, spacer 5′-GTTATCTCTGTTGGCTCCAT-3′ (spacer only, sgRNA scaffold lacks entry, further chemistry not given here)”, the “Average INDEL Frequency (%)” value in series [1] is 31.37%.

“GC10: sgRNA targeting IL2RG exon 6, spacer 5′-AAGGCTGATAATCAATCCCA-3′ (spacer only, sgRNA scaffold lacks entry, further chemistry not given here)”: in series [1], the “Average INDEL Frequency (%)” value came out at 71.77%. Besides, the “On-Target Read Count” value in series [2] came to 5384. Moreover, the “on-target/off-target profile (GUIDE-seq)” value in series [2] is given as “generally favorable”. The “GUIDE-seq Off-Targets” value in series [2] worked out at 1227. In addition, in series [2], the “Present in Multiple Replicates” value is given as 14. The Off-Target/On-Target came out at 3.05% in series [2] (site chr3 108840645, Intronic, TRAT1); 0.20% in series [2] (site chr5 159185831, Intronic, RNF145); 0.48% in series [2] (site chr12 62289934, Intronic, USP15); 0.71% in series [2] (site chr21 17142630, Intergenic); 1.60% in series [2] (site chrUn_KI270438v1 104161); 0.28% in series [2] (site chrUn_KI270438v1 104938). For the same substance, the Off-Target/On-Target in series [2] (site chrUn_KI270438v1 109447) was determined as 0.39%; in series [2] (site chrUn_KI270467v1 2297), 0.17%; in series [2] (site chrUn_KI270467v1 2459), 0.17%; in series [2] (site chrUn_KI270467v1 2622) it was 0.48%; in series [2] (site chrUn_KI270467v1 2830), 0.13%; in series [2] (site chrUn_KI270467v1 3365) it was 0.26%.

For the substance “GC11: sgRNA targeting IL2RG exon 6, spacer 5′-GGAGCCAACAGAGATAACCA-3′ (spacer only, sgRNA scaffold lacks entry, further chemistry not given here)”, in series [1], the “Average INDEL Frequency (%)” value was determined as 15.60%.

For “GC12: sgRNA targeting IL2RG exon 6, spacer 5′-CCACGGCTTCCAATGCAAAC-3′ (spacer only, sgRNA scaffold lacks entry, further chemistry not given here)”, the “Average INDEL Frequency (%)” value in series [1] amounted to 58.43%. In series [2], the “On-Target Read Count” value came out at 2352, the “on-target/off-target profile (GUIDE-seq)” value is “generally favorable”, the “GUIDE-seq Off-Targets” value turned out to be 1368 and the “Present in Multiple Replicates” value was found to be 4. Moreover, the Off-Target/On-Target in series [2] (site chr13 18212170, Intronic, FAM230C) was determined as 1.02%. The substance also registered an Off-Target/On-Target in series [2] (site chrUn_KI270467v1 2459) of 0.77%. The substance further gave an Off-Target/On-Target in series [2] (site chrUn_KI270467v1 2660) of 0.34%. Besides, the Off-Target/On-Target in series [2] (site chrUn_KI270590v1 2621) is on record as 0.38%.

On to “GC13: sgRNA targeting IL2RG exon 6, spacer 5′-GCTTCCAATGCAAACAGGAA-3′ (spacer only, sgRNA scaffold lacks entry, further chemistry not given here)”, for which the “Average INDEL Frequency (%)” value in series [1] is 35.60%.

In the case of “GC14: sgRNA targeting IL2RG exon 6, spacer 5′-TAGAAAAAAGAAAAGCAAAG-3′ (spacer only, sgRNA scaffold lacks entry, further chemistry not given here)”, the “Average INDEL Frequency (%)” value in series [1] is given as 28.23%.

“GC15: sgRNA targeting IL2RG exon 6, spacer 5′-TTGTGCCCCTACTACATGCC-3′ (spacer only, sgRNA scaffold lacks entry, further chemistry not given here)”: the “Average INDEL Frequency (%)” value in series [1] is given as 46.77%.

For the substance “TRAC 2: sgRNA targeting TRAC, spacer 5′-AGAGCAACAGTGCTGTGGCC-3′ (spacer only, sgRNA scaffold lacks entry, chemistry not fully specified)”, the “CD3+ cells (%)” value in series [3] (CD3+ T cells) turned out to be 43.17%; in series [3] (CD8+ T cells), 24.34%. Moreover, the entries for the “TCR+ cells (%)” value in series [3] (CD3+ T cells) and in series [3] (CD8+ T cells) were 8.63% and 8.1%, respectively. Further, the figures for the Cell count in series [4] (CD3+ T cells) and in series [4] (CD8+ T cells) were 7.77E+05 and 7.84E+05, respectively. Besides, the entries for the “INDEL Frequency (%)” value in series [5] (CD3+ T cells) and in series [5] (CD8+ T cells) were 53.85% and 59.5%, respectively.

On to “TRAC 2: sgRNA targeting TRAC, spacer 5′-AGAGCAACAGTGCTGTGGCC-3′ (spacer only; sgRNA scaffold lacks entry; TRAC gRNA spacer, TRAC 2)”, for which the results for the “Cell Viability (%)” value in series [4] (CD3+ T cells) and in series [4] (CD8+ T cells) were 80% and 88.5%, respectively.
